ChEMBL document CHEMBL3044572, “Discovery of 2-(4-cyano-3-trifluoromethylphenyl amino)-4-(4-quinazolinyloxy)-6-piperazinyl(piperidinyl)-s-triazines as potential antibacterial agents” (2012)
In brackets after ≈: the same amount, converted by molar mass. Activity calls are given as the source filed them. The calls are words filed in the database; no cut-off is given here.

Tests used:
Aspergillus clavatus [1] = experiment: Antimicrobial activity against Aspergillus clavatus MTCC 1323 by agar streak dilution method; format: functional
Bacillus cereus [2] = experiment: Antimicrobial activity against Bacillus cereus MTCC 619 by paper disk diffusion method; format: functional
Aspergillus clavatus [3] = experiment: Antimicrobial activity against Aspergillus clavatus MTCC 1323 by paper disk diffusion method; format: functional
Aspergillus niger [4] = experiment: Antimicrobial activity against Aspergillus niger MTCC 282 by agar streak dilution method; format: functional
Staphylococcus aureus [5] = experiment: Antimicrobial activity against Staphylococcus aureus MTCC 96 by paper-disk diffusion method; format: functional
Pseudomonas aeruginosa [6] = experiment: Antimicrobial activity against Pseudomonas aeruginosa MTCC 741 by paper disk diffusion method; format: functional
Klebsiella pneumoniae [7] = experiment: Antimicrobial activity against Klebsiella pneumoniae MTCC 109 by paper disk diffusion method; format: functional
Aspergillus niger [8] = experiment: Antimicrobial activity against Aspergillus niger MTCC 282 by paper-disk diffusion method; format: functional
Escherichia coli [9] = experiment: Antimicrobial activity against Escherichia coli MTCC 739 by agar streak dilution method; format: functional
Candida albicans [10] = experiment: Antimicrobial activity against Candida albicans MTCC 183 by agar streak dilution method; format: functional
Pseudomonas aeruginosa [11] = experiment: Antimicrobial activity against Pseudomonas aeruginosa MTCC 741 by agar streak dilution method; format: functional
Klebsiella pneumoniae [12] = experiment: Antimicrobial activity against Klebsiella pneumoniae MTCC 109 by agar streak dilution method; format: functional
Proteus vulgaris [13] = experiment: Antimicrobial activity against Proteus vulgaris MTCC 1771 by paper disk diffusion method; format: functional
Salmonella typhi [14] = experiment: Antimicrobial activity against Salmonella enterica subsp. enterica serovar Typhi MTCC 733 by paper disk diffusion method; format: functional
Aspergillus fumigatus [15] = experiment: Antimicrobial activity against Aspergillus fumigatus MTCC 343 by agar streak dilution method; format: functional
Bacillus cereus [16] = experiment: Antimicrobial activity against Bacillus cereus MTCC 619 by agar streak dilution method; format: functional
Shigella flexneri [17] = experiment: Antimicrobial activity against Shigella flexneri MTCC 1457 at 100 ug/ml by paper-disk diffusion method; format: functional, organism-based
Staphylococcus aureus [18] = experiment: Antimicrobial activity against Staphylococcus aureus MTCC 96 by agar streak dilution method; format: functional
[19] = tested on: Mycobacterium tuberculosis; experiment: Antimicrobial activity against Mycobacterium tuberculosis H37Rv at 100 ug/ml by BACTEC MGIT method; format: functional, organism-based
Proteus vulgaris [20] = experiment: Antimicrobial activity against Proteus vulgaris MTCC 1771 by agar streak dilution method; format: functional
Aspergillus fumigatus [21] = experiment: Antimicrobial activity against Aspergillus fumigatus MTCC 343 by paper-disk diffusion method; format: functional
Escherichia coli [22] = experiment: Antimicrobial activity against Escherichia coli MTCC 739 by paper disk diffusion method; format: functional
Candida albicans [23] = experiment: Antimicrobial activity against Candida albicans MTCC 183 by paper-disk diffusion method; format: functional
[24] = tested on: Mycobacterium tuberculosis; experiment: Antimicrobial activity against Mycobacterium tuberculosis H37Rv by BACTEC MGIT method; format: functional; details: Mycobacterium tuberculosis, H37Rv
[25] = tested on: Mycobacterium tuberculosis; experiment: Antimicrobial activity against Mycobacterium tuberculosis H37Rv by Lowenstein and Jensen method; format: functional; details: for MIC: Mycobacterium tuberculosis, H37Rv
Salmonella typhi [26] = experiment: Antimicrobial activity against Salmonella enterica subsp. enterica serovar Typhi MTCC 733 by agar streak dilution method; format: functional
Shigella flexneri [27] = experiment: Antimicrobial activity against Shigella flexneri MTCC 1457 by paper disk diffusion method; format: functional
Shigella flexneri [28] = experiment: Antimicrobial activity against Shigella flexneri MTCC 1457 by agar streak dilution method; format: functional
Pseudomonas aeruginosa [29] = experiment: Antimicrobial activity against Pseudomonas aeruginosa MTCC 741 at 100 ug/ml by paper disk diffusion method; format: functional, organism-based
Aspergillus fumigatus [30] = experiment: Antimicrobial activity against Aspergillus fumigatus MTCC 343 at 100 ug/ml by paper-disk diffusion method; format: functional, organism-based
Aspergillus clavatus [31] = experiment: Antimicrobial activity against Aspergillus clavatus MTCC 1323 at 100 ug/ml by paper disk diffusion method; format: functional, organism-based

Compound | inhibition zone (IZ) (Bacillus cereus [2]) [mm] | MIC (Aspergillus niger [4]) [µg/mL] | inhibition zone (IZ) (Staphylococcus aureus [5]) [mm] | inhibition zone (IZ) (Klebsiella pneumoniae [7]) [mm] | inhibition zone (IZ) (Aspergillus niger [8]) [mm] | MIC (Escherichia coli [9]) [µg/mL] | MIC (Candida albicans [10]) [µg/mL] | MIC (Klebsiella pneumoniae [12]) [µg/mL] | inhibition zone (IZ) (Proteus vulgaris [13]) [mm] | inhibition zone (IZ) (Salmonella typhi [14]) [mm] | MIC (Bacillus cereus [16]) [µg/mL] | MIC (Staphylococcus aureus [18]) [µg/mL] | inhibition [19] | MIC (Proteus vulgaris [20]) [µg/mL] | inhibition zone (IZ) (Escherichia coli [22]) [mm] | inhibition zone (IZ) (Candida albicans [23]) [mm] | MIC [24] [µg/mL] | inhibition (percent inhibition) [25] [%] | MIC [25] [µg/mL] | MIC (Salmonella typhi [26]) [µg/mL] | also measured
CC(C)N1CCN(c2nc(Nc3ccc(C#N)c(C(F)(F)F)c3)nc(Oc3ncnc4ccccc34)n2)CC1 | 23 | 100 (≈ 187 µM) | 25 | 22 | 22 | 12.5 (≈ 23.3 µM) | 50 (≈ 93.4 µM) | 50 (≈ 93.4 µM) | 24 | 23 | 50 (≈ 93.4 µM) | 25 (≈ 46.7 µM) | inactive | 25 (≈ 46.7 µM) | 27 | 23 | > 6.25 | 97 | 50 (≈ 93.4 µM) | 50 (≈ 93.4 µM) | MIC (Aspergillus clavatus [1]): 25 µg/mL (≈ 46.7 µM); inhibition zone (IZ) (Aspergillus clavatus [3]): 23 mm; inhibition zone (IZ) (Pseudomonas aeruginosa [6]): 24 mm; MIC (Pseudomonas aeruginosa [11]): 12.5 µg/mL (≈ 23.3 µM); MIC (Aspergillus fumigatus [15]): 50 µg/mL (≈ 93.4 µM); inhibition zone (IZ) (Shigella flexneri [17]): inactive; inhibition zone (IZ) (Aspergillus fumigatus [21]): 23 mm
N#Cc1ccc(Nc2nc(Oc3ncnc4ccccc34)nc(N3CCN(c4ccc(F)cc4)CC3)n2)cc1C(F)(F)F | 26 | 12.5 (≈ 21.3 µM) | 28 | 23 | 25 | 25 (≈ 42.6 µM) | 6.25 (≈ 10.6 µM) | 25 (≈ 42.6 µM) | 24 | 27 | 12.5 (≈ 21.3 µM) | 6.25 (≈ 10.6 µM) | inactive | 12.5 (≈ 21.3 µM) | 25 | 27 | > 6.25 | 98 | 12.5 (≈ 21.3 µM) | 6.25 (≈ 10.6 µM) | MIC (Aspergillus clavatus [1]): 12.5 µg/mL (≈ 21.3 µM); inhibition zone (IZ) (Shigella flexneri [27]): 23 mm; MIC (Shigella flexneri [28]): 50 µg/mL (≈ 85.1 µM); inhibition zone (IZ) (Aspergillus clavatus [3]): 24 mm; inhibition zone (IZ) (Pseudomonas aeruginosa [6]): 28 mm; inhibition zone (IZ) (Pseudomonas aeruginosa [29]): inactive; MIC (Pseudomonas aeruginosa [11]): 6.25 µg/mL (≈ 10.6 µM); MIC (Aspergillus fumigatus [15]): 12.5 µg/mL (≈ 21.3 µM); inhibition zone (IZ) (Aspergillus fumigatus [21]): 24 mm
N#Cc1ccc(Nc2nc(Oc3ncnc4ccccc34)nc(N3CCN(Cc4ccccc4)CC3)n2)cc1C(F)(F)F | 23 | 100 (≈ 171 µM) | 22 | 23 | 21 | 100 (≈ 171 µM) | 100 (≈ 171 µM) | 100 (≈ 171 µM) | 21 | 23 | 100 (≈ 171 µM) | 50 (≈ 85.7 µM) | inactive | 100 (≈ 171 µM) | 21 | 21 | > 6.25 | 95 | 500 (≈ 857 µM) | 100 (≈ 171 µM) | MIC (Aspergillus clavatus [1]): 100 µg/mL (≈ 171 µM); inhibition zone (IZ) (Shigella flexneri [27]): 20 mm; MIC (Shigella flexneri [28]): 100 µg/mL (≈ 171 µM); inhibition zone (IZ) (Aspergillus clavatus [3]): 20 mm; inhibition zone (IZ) (Pseudomonas aeruginosa [29]): inactive; inhibition zone (IZ) (Aspergillus fumigatus [30]): inactive
N#Cc1ccc(Nc2nc(Oc3ncnc4ccccc34)nc(N3CCN(c4ncccn4)CC3)n2)cc1C(F)(F)F | 25 | 100 (≈ 175 µM) | 23 | 20 | 22 | 100 (≈ 175 µM) | 100 (≈ 175 µM) | 100 (≈ 175 µM) | 21 | 22 | 50 (≈ 87.5 µM) | 25 (≈ 43.7 µM) | inactive | 100 (≈ 175 µM) | 23 | 22 | > 6.25 | 96 | 200 (≈ 350 µM) | 50 (≈ 87.5 µM) | inhibition zone (IZ) (Pseudomonas aeruginosa [6]): 22 mm; MIC (Pseudomonas aeruginosa [11]): 50 µg/mL (≈ 87.5 µM); inhibition zone (IZ) (Aspergillus fumigatus [30]): inactive; inhibition zone (IZ) (Aspergillus clavatus [31]): inactive; inhibition zone (IZ) (Shigella flexneri [17]): inactive
N#Cc1ccc(Nc2nc(Oc3ncnc4ccccc34)nc(N3CCC(Cc4ccccc4)CC3)n2)cc1C(F)(F)F | 23 | 100 (≈ 172 µM) | 23 | 23 | 21 | 100 (≈ 172 µM) | 100 (≈ 172 µM) | 100 (≈ 172 µM) | 23 | 22 | 100 (≈ 172 µM) | 100 (≈ 172 µM) | inactive | 25 (≈ 42.9 µM) | 21 | 22 | > 6.25 | 94 | 500 (≈ 858 µM) | 100 (≈ 172 µM) | MIC (Aspergillus clavatus [1]): 100 µg/mL (≈ 172 µM); inhibition zone (IZ) (Aspergillus clavatus [3]): 20 mm; inhibition zone (IZ) (Pseudomonas aeruginosa [6]): 19 mm; MIC (Pseudomonas aeruginosa [11]): 100 µg/mL (≈ 172 µM); MIC (Aspergillus fumigatus [15]): 100 µg/mL (≈ 172 µM); inhibition zone (IZ) (Shigella flexneri [17]): inactive; inhibition zone (IZ) (Aspergillus fumigatus [21]): 21 mm
